Data published in patent publication US20080242657A1, “Treatment of Tremor with Histamine H3 Inverse Agonists or Hist Amine H3 Antagonists” (priority 2004, published 2008).

Tested on: harmaline-induced tremor
Test: harmaline-induced tremor model in rats
Type: in vivo
Excerpt: The identification of a compound as a histamine H3 inverse agonist or a histamine H3 antagonist may be readily determined without undue experimentation by methodology well known in the art. The efficacy of a histamine H3 inverse agonist or a histamine H3 antagonist in treating tremor may be readily determined without undue experimentation by methodology well known in the art, for example the harmaline-induced tremor model in rats, Sinton, et al., Pflugers Archive Eur. J. Phys., 414(1) 31-36 (1989). […] The ability of the histamine H3 inverse agonist or histamine H3 antagonist to be used in the present invention to treat tremor or movement disorders may be determined by these methods.

N#Cc1ccc(-c2cnc(OC3CCN(C4CCCC4)CC3)nc2)cc1 [2-(1-cyclopentylpiperidine-4-yloxy)-5-(4-cyanophenyl)pyrimidine]
reversal of harmaline-induced tremor (dose of 1 mg/kg): 8.4% | reversal of harmaline-induced tremor (dose of 3 mg/kg): 63.3% | reversal of harmaline-induced tremor (dose of 10 mg/kg): 84.4%
